The target of data set [1] is T1, human AGT (Homo sapiens, UniProt P16455).
T1 construct: expressed in transfected cells; host or cells: CHO-K1 cells, geneticin-selected clones, plasmid pCMV-AGT
T1 sequence (P16455 1-207): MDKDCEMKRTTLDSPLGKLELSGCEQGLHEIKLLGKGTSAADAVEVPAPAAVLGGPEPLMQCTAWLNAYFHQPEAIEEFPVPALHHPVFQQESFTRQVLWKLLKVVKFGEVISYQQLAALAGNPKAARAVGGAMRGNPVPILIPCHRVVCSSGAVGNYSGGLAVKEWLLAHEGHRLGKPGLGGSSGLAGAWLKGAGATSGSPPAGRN
The data set can be described thus: Depletion (inactivation) of cellular AGT activity in CHO cells transfected with pCMV-AGT. In kind it is cell-based. As for the experimental part: FIG. 8 is a graph showing depletion of cellular AGT activity by unlabeled 6-(4-fluoro-benzyloxy)-9H-purin-2-ylamine (O^6-4-fluorobenzylguanine (FBG)) and 6-(iodo-benzyloxy)-9H-purin-2-ylamine (O^6-iodobenzylguanine (IBG)). CHO cells transfected with pCMV-AGT were incubated with varying concentrations of IBG (▪) or FBG ([…]) for 4 hours, and the AGT activity associated with the cells was determined. The results are expressed as the percentage of the AGT activity present in cell cultures that were not treated with FBG or IBG.
CHO-K1 cells were maintained in αMEM (Gibco, Grand Island, N.Y.) containing 10% fetal bovine serum. […]
Inactivation of cellular AGT was measured by adding varying concentrations of FBG or IBG to cell cultures that had reached 80-90% confluence. […] AGT activity was measured by assaying the loss of [^3H]—O^6-methylguanine from a [^3H] methylated calf thymus DNA substrate as described by, e.g., Dolan et al., PNAS, 87:5368-5372 (1990). The results are expressed as the percentage of the AGT activity present in cell cultures that were not treated with FBG or IBG. […]
Because IBG is a new compound, its ability to deplete AGT was determined using CHO cells transfected with pCMV-AGT to express AGT. In parallel, the ability of FBG to deplete AGT under the same conditions also was measured. […]

Data set [2] deals with T2, Purified human AGT with a (His)6 tag (Homo sapiens, UniProt P16455).
T2 construct: (His)6
T2 sequence (P16455 1-207): T1 sequence (P16455 1-207)
The data set can be described thus: In vitro binding of radiolabeled FBG or IBG to purified AGT (TCA precipitation). The settings on record: for maximum observed AGT to BSA binding ratio: 10 μg AGT vs 10 μg BSA (nonspecific protein); for unlabeled compound concentration above which saturation was observed: binding to purified AGT. As to the method:
FIG. 9 is a graph showing binding of [^18F] FBG to purified AGT as a function of unlabeled FBG concentration. […] FBG was incubated for 30 minutes at 37° C., in the presence or absence of increasing amounts of unlabeled FBG, with 10 μg of AGT ([…]), or to control for nonspecific binding, 10 μg of BSA (▴) in a Tris-buffer. The protein-associated activity was determined by TCA precipitation.
IBG to purified AGT as a function of unlabeled IBG concentration. […] IBG with AGT ([…]) or BSA (▴).
Purified human AGT with a (His)6 tag was generously provided by Dr. Anthony E. Pegg of Hershey Medical Center, Pennsylvania State University. […] The incubation carried out in 0.1 ml 50 mM Tris-Cl, pH 7.5, 5 mM DTT, 0.1 mM EDTA in the presence of 10 μg calf thymus DNA. […] The precipitated proteins were collected on GF-C (Whatman) filters, which were washed extensively with 5% TCA. The results are expressed as the percentage of input activity retained on the filter. For each concentration, the assay was performed in triplicate.
To investigate whether AGT recognizes radiolabeled FBG and IBG as substrates, the efficacy of transfer of their radiolabeled benzyl groups to AGT was determined using the purified protein. […] The preparation of ^13C-and ^14C-labeled O^6-benzylguanosines has been reported by, e.g., Madelmont et al., J. Lab. Comp.

Data set [3] in a line: Stability during reversed-phase chromatography with 0.1% TFA in water. Type of data set: physicochemical. The settings on record: 0.1% TFA in water (pH 2) as a co-solvent. The source says:
A combination of radio-TLC, and normal-phase and reversed-phase HPLC was used to verify that the final product was indeed IBG and not the 3-iodobenzyl alcohol. Very little if any of 3-iodobenzyl alcohol was detected in the reaction mixture. In addition, the final product bound to AGT specifically (vide infra), which further supports its authenticity. […] This may be due to the lack of water in the reaction mixture or a rate factor may be involved. Both IBG and FBG were stable during reversed-phase chromatography involving 0.1% TFA in water (pH 2) as a co-solvent.

The results in this text go back to patent US20120270812A1, “COMPOSITIONS, METHODS, AND KITS FOR DETERMINING AN ALKYL TRANSFERASE” (Duke University, priority 2009, published 2012).

Read-outs that look alike come from different tables or passages of the source.

For `Nc1nc(OCc2ccc(F)cc2)c2nc[nH]c2n1` [FBG, 6-(4-fluoro-benzyloxy)-9H-purin-2-ylamine, reference compound], the IC50 in data set [1] (CHO cells transfected with pCMV-AGT, 4 hours of drug treatment, read-out: IC50 for depleting AGT) stood at 50 nM; in data set [2] (10 μg AGT, 30 minutes at 37° C., read-out: IC50 (binding to purified AGT as a function of unlabeled compound concentration)), 5000 nM. The “stability during reversed-phase chromatography” value in data set [3] is recorded as “stable”.

For `Nc1nc(OCc2ccc([18F])cc2)c2nc[nH]c2n1` [[^18F]FBG, 6-(4-[^18F]Fluoro-benzyloxy)-9H-purin-2-ylamine], in data set [2], the “maximum observed AGT to BSA binding ratio” value is given as 661 and the “unlabeled compound concentration above which saturation was observed” value is “higher than 2 μM”. Besides, the “percent of input activity that bound to AGT, maximum” value in data set [2] (at 0.5 μM of unlabeled FBG, 10 μg AGT, 30 minutes at 37° C.) was “about 90%”.

With `Nc1nc(OCc2cccc([131I])c2)c2nc[nH]c2n1` [[^131I]IBG, 6-(3-[^131I]Iodo-benzyloxy)-9H-purin-2-ylamine], in data set [2], the “maximum observed AGT to BSA binding ratio” value stood at 35 and the “unlabeled compound concentration above which saturation was observed” value is listed as “higher than 3 μM”. Further, the “percent of radiolabeled compound bound to AGT” value in data set [2] (over a wide range of unlabeled IBG concentrations, 10 μg AGT, 30 minutes at 37° C.) is listed as “About 60%”.

Take `Nc1nc(OCc2cccc(I)c2)c2[nH]cnc2n1` [IBG, 6-(3-Iodo-benzyloxy)-9H-purin-2-ylamine]: the IC50 was 15 nM in data set [1] and ~6000 nM in data set [2]. Also, the “stability during reversed-phase chromatography” value in data set [3] was “stable”.
